From patent US20260285869A1, “COMPOUNDS, COMPOSITIONS AND METHODS THEREOF” (HEPAITECH (BEIJING) BIOPHARMA TECHNOLOGY CO., LTD., priority 2023, published 2026) come the findings set out here.

As a reminder, the inhibition is the drop in the measured response relative to a control, in per cent. The IC50 is the point on the concentration scale where inhibition reaches its midpoint.

Where only a bound is given, the exact number is not on record here.

The target of this experiment is T1, human MRGPRX4 (Homo sapiens, UniProt Q96LA9).
T1 construct: expressed in transfected cells
The experiment is described as follows: MRGPRX4 antagonist calcium assay (FLIPR, Fluo-8) in HEK293T cells stably expressing human MRGPRX4. Type of experiment: cell-based. The following applies: antagonist mode against 0.2 μM deoxycholic acid-3-phosphoric acid; for inhibition at 0.5 µM / inhibition at 2 µM: HEK-293T, HEK293T cells expressing human MRGPRX4; for inhibition at 0.5 µM: compound at 500 nM; for IC50: top conc. 30 μM, ten 3-fold serial dilutions, class symbols; for inhibition at 2 µM: compound at 2 μM. How it is done:
HEK293T cells stably expressing human MRGPRX4 were cultured in DMEM medium supplements with 10% FBS, 100 U/mL penicillin-streptomycin, 20 mM HEPES and 1 μg/mL puromycin at 37° C. with 5% (v/v) CO2. One day before test, the cells were detached using TrypLE™ Express and counted using cell counter. In a 384-well plate cells were seeded at a density of 20,000 cells/well in 20 μL/well planting medium (DMEM medium supplements with 5% FBS, 100 U/mL penicillin-streptomycin and 20 mM HEPES), and incubated overnight at 37° C. with 5% (v/v) CO2. On the day of experiments, the dye solution, prepared following the manufacture's instruction of the Screen Quest™ Fluo-8 No Wash Calcium Assay Kit, was added to each well (20 μL/well) of the cell plate. The cell plate was incubated at 25° C. for 1 hour. Test compounds in different doses were transferred to the cell plate by FLIPR and the plate was kept in the dark at 25° C. for 30 minutes. The agonist solution, 0.2 μM of deoxycholic acid-3-phosphoric acid in assay buffer, was added to each well of the plate. The plate was read for 160 sec with 1 sec interval to obtain data of antagonist mode in FLIPR. […] Those skilled in the art appreciate that IC50 of various compounds can be assessed in accordance with the present disclosure.

T1 sequence (Q96LA9 whole entry): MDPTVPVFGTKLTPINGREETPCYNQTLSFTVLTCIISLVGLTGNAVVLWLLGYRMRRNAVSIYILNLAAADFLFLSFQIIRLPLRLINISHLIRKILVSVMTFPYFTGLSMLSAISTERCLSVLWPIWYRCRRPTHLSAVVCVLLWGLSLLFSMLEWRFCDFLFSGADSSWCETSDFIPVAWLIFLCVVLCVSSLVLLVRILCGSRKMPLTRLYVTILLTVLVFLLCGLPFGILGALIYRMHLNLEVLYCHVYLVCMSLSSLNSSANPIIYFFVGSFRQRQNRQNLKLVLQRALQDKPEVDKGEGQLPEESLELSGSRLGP

Turning to `O=C(O)c1c(F)ccc2c1ccn2Cc1cccc(C(F)(F)F)c1Cl` [Compound 2], the inhibition at 0.5 µM stood at 98% and the IC50 is below 500 nM.
As for `O=C(O)c1cc(-c2ccccc2)cc2c1ccn2Cc1cccc(C(F)(F)F)c1Cl` [Compound 39], the inhibition at 0.5 µM amounted to 1.6%.
Turning to `O=C(O)c1cccc2c1ccn2Cc1ccc(OC(F)(F)F)cc1` [Compound 7], the inhibition at 0.5 µM was 20%.
In the case of `O=C(O)c1ncnc2c1ccn2Cc1cccc(C(F)(F)F)c1Cl` [Compound 13], the inhibition at 0.5 µM was 27%.
`O=C(O)c1cccc2c1cnn2Cc1ccc(C(F)(F)F)cc1Cl` [Compound 27]: the inhibition at 2 µM was found to be 72%.
Consider `FC(F)(F)c1ccc(Cn2ccc3c(-c4nnn[nH]4)cccc32)cc1Cl` [Compound 46], for which the inhibition at 2 µM was determined as 99.9% and the IC50 was below 500 nM.
Turning to `O=C(O)c1c(F)ccc2c1ccn2Cc1ccc(C(F)(F)F)c(Cl)c1` [Compound 1], the inhibition at 0.5 µM amounted to 78% and the IC50 is below 500 nM.
For the molecule `Cc1cc2c(C(=O)O)cccc2n1Cc1cc(C(F)(F)F)ccc1Cl` [Compound 18], the inhibition at 2 µM was determined as 7.2%.
For `O=C(O)c1cccc2c1ccn2Cc1ccc(C(F)(F)F)cc1Br` [Compound 33], the inhibition at 2 µM is 98% and the 50% inhibitory concentration (IC50) was in the range of 500 to 5000 nM.
In the case of `O=C(O)c1cc(Br)cc2c1ccn2Cc1cccc(C(F)(F)F)c1Cl` [Compound 30], the inhibition at 0.5 µM amounted to 97% and the IC50 was below 500 nM.
Take `O=C(O)c1cccc2c1ccn2Cc1cc(C(F)(F)F)ccc1Cl` [Compound 35]: the inhibition at 2 µM was found to be 5.1%.
Consider `Cc1cn(Cc2ccc(C(F)(F)F)cc2Cl)c2cccc(C(=O)O)c12` [Compound 20], for which the inhibition at 2 µM was 97% and the IC50 lay within 500 to 5000 nM.
On to `O=C(O)c1cccc2c1ccn2CCc1cc(C(F)(F)F)ccc1Cl` [Compound 37], for which the inhibition at 2 µM came to 5.5%.
In the case of `Fc1ccc2c(ccn2Cc2ccc(C(F)(F)F)c(Cl)c2)c1-c1nnn[nH]1` [Compound 51], the inhibition at 0.5 µM is 99.9% and the IC50 is below 500 nM.
`O=C(O)c1cccc2c1ccn2Cc1cc(Cl)cc(C(F)(F)F)c1` [Compound 23]: the inhibition at 2 µM came to 29%.
Regarding `FC(F)(F)c1ccc(Cn2ccc3c(-c4nnn[nH]4)cccc32)c(Cl)c1` [Compound 42], the inhibition at 2 µM amounted to 100% and the IC50 was below 500 nM.
As to `O=C(O)c1cccc2c1ccn2Cc1cccc(C(F)(F)F)c1F` [Compound 24], the inhibition at 0.5 µM was 20%.
For `O=C(O)c1cccc2c1ccn2Cc1c(Cl)cccc1Cl` [Compound 32], the inhibition at 2 µM was -13%.
In the case of `O=C(O)c1cccc2c1ccn2Cc1ccccc1C(F)(F)F` [Compound 11], the inhibition at 0.5 µM is -1.2%.
Regarding `O=C(O)c1cccc2c1ccn2Cc1ccc(C(F)(F)F)c(Cl)c1` [Compound 19, 1-(3-chloro-4-(trifluoromethyl)benzyl)-1H-indole-4-carboxylic acid], the inhibition at 2 µM was 99.7% and the IC50 is below 500 nM.
For `FC(F)(F)c1ccc(Cn2ccc3c(-c4nnn[nH]4)cccc32)c(Br)c1` [Compound 45], the inhibition at 2 µM is 100% and the IC50 was below 500 nM.
Turning to `NC(=O)c1cccc2c1ccn2Cc1cccc(C(F)(F)F)c1Cl` [Compound 53], the inhibition at 0.5 µM was -7.6%.
In the case of `O=C(O)c1cccc2c1ccn2Cc1cccc(C(F)(F)F)c1Cl` [Compound 12], the inhibition at 2 µM was 101% and the IC50 was below 500 nM.
`Cc1cc2c(C(=O)O)cccc2n1Cc1ccc(C(F)(F)F)cc1Cl` [Compound 21]: the inhibition at 2 µM was 52%.
Regarding `O=C(O)c1cccc2c1ccn2Cc1c(Cl)cc(C(F)(F)F)cc1Cl` [Compound 31], the inhibition at 2 µM is -6.2%.
Regarding `O=C(O)c1cccc2c1ccn2Cc1cccc(C(F)(F)F)c1` [Compound 9], the inhibition at 0.5 µM was -1.6%.
Turning to `O=C(O)c1cccc2c1cnn2Cc1cc(C(F)(F)F)ccc1Cl` [Compound 34], the inhibition at 2 µM was -2.4%.
As for `O=C(O)c1cccc2c1ccn2Cc1ccc(C(F)(F)F)cc1Cl` [Compound 4], the inhibition at 2 µM was 91% and the half-inhibitory concentration (IC50) was below 500 nM.
The like results for `Fc1cc(C(F)(F)F)ccc1Cn1ccc2c(-c3nnn[nH]3)cccc21` [Compound 43] were, in that order, 96% and below 500 nM.
Turning to `O=C(O)c1cccc2c1ccn2Cc1ccc(C(F)(F)F)cc1` [Compound 3], the inhibition at 2 µM was 34% and the IC50 was 500 to 5000 nM.
With `FC(F)(F)c1cccc(Cn2ccc3c(-c4nnn[nH]4)ncnc32)c1Cl` [Compound 47], the inhibition at 0.5 µM came out at 13%.
In the case of `O=C(O)c1cccc2c1ncn2Cc1ccc(C(F)(F)F)cc1Cl` [Compound 26], the inhibition at 2 µM was 49%.
Same read-out and setting: the value for `FC(F)(F)c1ccc(Cn2ccc3c(-c4nnn[nH]4)cccc32)cc1` [Compound 41] was 81%.
Consider `O=C(O)c1ncnc2c1ccn2Cc1ccc(C(F)(F)F)c(Cl)c1` [Compound 14], for which the inhibition at 0.5 µM was 12%.
`O=C(O)c1ccc(Cl)c2c1ccn2Cc1cccc(C(F)(F)F)c1Cl` [Compound 40]: the inhibition at 0.5 µM was 4.9%.
In the case of `O=C(O)c1cccc2c1ccn2Cc1ccc(Cl)c(C(F)(F)F)c1` [Compound 10], the inhibition at 0.5 µM is 90% and the IC50 is below 500 nM.
Take `NC(=O)c1cccc2c1ccn2Cc1ccc(C(F)(F)F)c(Cl)c1` [Compound 54]: the inhibition at 0.5 µM amounted to 11%.
As for `O=C(O)c1cccc2c1ccn2CCc1ccc(C(F)(F)F)cc1Cl` [Compound 25], the 50% inhibitory concentration (IC50) was above 5000 nM.
Regarding `O=C(O)c1cc(F)cc2c1ccn2Cc1cccc(C(F)(F)F)c1Cl` [Compound 28], the inhibition at 0.5 µM stood at 86% and the IC50 was below 500 nM.
On to `O=C(O)c1cc(Cl)cc2c1ccn2Cc1cccc(C(F)(F)F)c1Cl` [Compound 29], for which the inhibition at 0.5 µM is 76% and the half-inhibitory concentration (IC50) is below 500 nM.
In the case of `O=C(O)c1cccc2c1ccn2Cc1ccc(C(F)(F)F)cc1F` [Compound 16], the inhibition at 2 µM worked out at 94% and the IC50 was below 500 nM.
For the molecule `Cc1cn(Cc2cc(C(F)(F)F)ccc2Cl)c2cccc(C(=O)O)c12` [Compound 17], the inhibition at 2 µM was 3.6%.
Turning to `O=C(O)c1cccc2c1ccn2Cc1ccccc1Cl` [Compound 36], the inhibition at 2 µM was found to be 0.4%.
`O=C(O)c1cccc2c1ccn2Cc1c(Cl)cccc1C(F)(F)F` [Compound 22]: the inhibition at 2 µM came to 2.4%.
In the case of `O=C(O)c1cccc2c1CCN2Cc1ccc(C(F)(F)F)cc1Cl` [Compound 6], the inhibition at 2 µM came out at 18%.
As for `O=C(O)c1cccc2c1CCN2Cc1ccc(C(F)(F)F)cc1` [Compound 5], the inhibition at 2 µM was determined as 40% and the half-maximal inhibitory concentration (IC50) was above 5000 nM.
In the case of `O=C(O)c1cc(C2CC2)cc2c1ccn2Cc1cccc(C(F)(F)F)c1Cl` [Compound 38], the inhibition at 0.5 µM was found to be 44%.
For the molecule `FC(F)(F)c1ccc(Cn2ccc3c(-c4nnn[nH]4)ncnc32)cc1Cl` [Compound 48], the inhibition at 0.5 µM came out at 4.3%.
The same measure, in the same setting: the value for `NC(=O)c1c(F)ccc2c1ccn2Cc1cccc(C(F)(F)F)c1Cl` [Compound 55] was 36%.
On to `O=C(O)c1cccc2c1ccn2Cc1ccc(OC(F)(F)F)c(Cl)c1` [Compound 8], for which the inhibition at 0.5 µM amounted to 64% and the half-maximal inhibitory concentration (IC50) is below 500 nM.
`Fc1cc(-c2nnn[nH]2)c2ccn(Cc3cccc(C(F)(F)F)c3Cl)c2c1` [Compound 50]: the inhibition at 0.5 µM was -11.2%.
As to `CC(c1ccc(C(F)(F)F)cc1)n1ccc2c(C(=O)O)cccc21` (centres unmarked) [Compound 15], the inhibition at 0.5 µM was determined as 5.3%.
As to `FC(F)(F)c1cccc(Cn2ccc3c(-c4nnn[nH]4)cccc32)c1Cl` [Compound 44], the inhibition at 2 µM stood at 65% and the IC50 was 500 to 5000 nM.
